Reference: patent US20030133958A1, “External agent for the skin and whitening agent” (priority 2000, published 2003)

Test system: B-16 melanoma cells
Assay: Test for evaluating melanogenesis-inhibitory function (cell-whitening degree) in cell culture systems using B-16 melanoma cells
Format: cell-based
Set-up: key to Whitening degree: ++: The whitening degree is higher than that observed when adding 450 μg/mL of vitamin C-magnesium phosphate.; +: The whitening degree is almost identical to that observed when adding 450 μ g/mL of vitamin C-magnesium phosphate.; ±: The whitening degree is not higher than that observed when adding 450 μg/mL of vitamin C-magnesium phosphate, but higher than that of the control.; −: The whitening degree is almost identical to that observed for the control
Details: for Whitening degree: B-16 melanoma cells
Source text: The B-16 melanoma cell is one having an ability of producing melanin and therefore, the cells naturally grown by cell culture blacken. If a substance capable of inhibiting melanogenesis is present in the cell growth system during the cell growth, the blackening of the cells is inhibited and they relatively whiten. Accordingly, the whitening effect of each candidate substance can be evaluated on the basis of the degree of whiteness observed when adding a test sample relative to the degree of blackness observed for a control. […] To evaluate this cytotoxicity, the cell survival rate observed when adding a test sample to the system is compared with that observed for the control. Thus, the substantial whitening effect can be evaluated on the basis of the results of these cell-whitening test and cytotoxicity test.
An example of such a method for evaluating the melanogenesis-inhibitory function in a cell culture system using B-16 melanoma cells comprises, for instance, the steps of dispensing 2 ml/well of a culture medium to each well of a 6-well plate, inoculating a desired amount of melanoma cells to the medium, cultivating the cells by allowing the medium to stand at 37° C. and a carbon dioxide concentration of 5%. On the following day, a solution of a test sample is added and mixed with the culture medium to a predetermined concentration and the cell cultivation is continued. After 5 days from the initiation of the cultivation, the culture medium is replaced with fresh one and the solution of the test sample is again added thereto. On the next day, the medium is removed to thus recover the cells, followed by washing them with PBS (phosphate-buffered saline) and the determination of the degree of whiteness to thus evaluate the whitening effect of the test sample. In this connection, the melanogenesis-inhibitory function is evaluated by comparing the results thus obtained with the degree of whiteness observed when the same procedures are repeated using the vitamin C-magnesium phosphate as a known whitening agent instead of the test sample solution (positive control) and that observed when the procedures are repeated without addition of any test sample (control).
A culture medium was dispensed to wells of a 6-well plate (2 mL/well each), followed by inoculation of a desired amount of B-16 melanoma cells on each well, allowing the wells to stand at 37° C. and 5% CO2 to thus cultivate the cells. On the day subsequent thereto, a sample solution prepared was added to the wells with stirring and the cultivation was continued. The culture medium was replaced with fresh one on the 5th day from the initiation of the cultivation and the sample solution was again added to the wells. On the next day, the culture medium was removed to recover the cells, followed by washing them with PBS (phosphate buffered physiological saline) and then evaluation of the cell-whitening degree In this respect, the melanogenesis-inhibitory function was evaluated by comparing the cell-whitening degree thus obtained with that observed when the same procedures used above were repeated except that vitamin C-magnesium phosphate as a known whitening agent (positive control) was substituted for the sample solution used above and that observed when the same procedures used above were repeated except that any sample was not added (control), according to the following evaluation criteria.
The evaluation criteria for the cell-whitening degree are as follows: […]

CCOC(=O)[C@]12CCC(C)(C)C[C@H]1C1=CC[C@@H]3[C@@]4(C)C[C@@H](O)[C@H](O)C(C)(C)[C@@H]4CC[C@@]3(C)[C@]1(C)CC2 [Compound of Synthesis 1, Ethyl Ester of Maslinic Acid]
Whitening degree (concentration 2 ppm): ±
Whitening degree (concentration 4 ppm): +
Whitening degree (concentration 6 ppm): ++
Whitening degree (concentration 8 ppm): ++
Whitening degree (concentration 10 ppm): ++

CC(=O)O[C@@H]1C[C@]2(C)[C@H]3CC=C4[C@@H]5CC(C)(C)CC[C@]5(C(=O)O)CC[C@@]4(C)[C@]3(C)CC[C@H]2C(C)(C)[C@H]1OC(C)=O [Compound of Synthesis 2, 2,3-O-Di-Acetyl-Maslinic Acid]
Whitening degree (concentration 2 ppm): ±
Whitening degree (concentration 4 ppm): ±
Whitening degree (concentration 6 ppm): +
Whitening degree (concentration 8 ppm): ++
Whitening degree (concentration 10 ppm): ++
Whitening degree (concentration 15 ppm): ++

CC(=O)OCC12CCC(C)(C)CC1C1=CCC3C4(C)CCC(OC(C)=O)C(C)(C)C4CCC3(C)C1(C)CC2 (centres unmarked) [Compound of Synthesis 5, 3,28-O-Di-Acetyl-Erythrodiol]
Whitening degree (concentration 2 ppm): ±
Whitening degree (concentration 4 ppm): ±
Whitening degree (concentration 6 ppm): ±
Whitening degree (concentration 8 ppm): ±
Whitening degree (concentration 10 ppm): ±
Whitening degree (concentration 15 ppm): ±
Whitening degree (concentration 25 ppm): +
Whitening degree (concentration 50 ppm): +

CC(=O)OC[C@]12CC[C@@H](C)[C@H](C)[C@H]1C1=CC[C@@H]3[C@@]4(C)CC[C@H](OC(C)=O)C(C)(C)[C@@H]4CC[C@@]3(C)[C@]1(C)CC2 [Compound of Synthesis 6, 3,28-O-Di-Acetyl-Uvaol]
Whitening degree (concentration 2 ppm): −
Whitening degree (concentration 4 ppm): −
Whitening degree (concentration 6 ppm): −
Whitening degree (concentration 8 ppm): ±
Whitening degree (concentration 10 ppm): +
Whitening degree (concentration 15 ppm): +
Whitening degree (concentration 25 ppm): +
Whitening degree (concentration 50 ppm): +

C=C(C)[C@@H]1CC[C@]2(C(=O)OCC)CC[C@]3(C)[C@H](CC[C@@H]4[C@@]5(C)CC[C@H](O)C(C)(C)[C@@H]5CC[C@]43C)[C@@H]12 [Compound of Synthesis 7, Ethyl Ester of Betulinic Acid]
Whitening degree (concentration 2 ppm): −
Whitening degree (concentration 4 ppm): ±
Whitening degree (concentration 6 ppm): ±
Whitening degree (concentration 8 ppm): ±
Whitening degree (concentration 10 ppm): +
Whitening degree (concentration 15 ppm): +
Whitening degree (concentration 25 ppm): +
Whitening degree (concentration 50 ppm): +

C=C(C)[C@@H]1CC[C@]2(COC(C)=O)CC[C@]3(C)[C@H](CC[C@@H]4[C@@]5(C)CC[C@H](OC(C)=O)C(C)(C)[C@@H]5CC[C@]43C)[C@@H]12 [Compound of Synthesis 8, 3,28-O-Di-Acetyl-Betulin]
Whitening degree (concentration 2 ppm): −
Whitening degree (concentration 4 ppm): −
Whitening degree (concentration 6 ppm): ±
Whitening degree (concentration 8 ppm): ±
Whitening degree (concentration 10 ppm): ±
Whitening degree (concentration 15 ppm): +
Whitening degree (concentration 25 ppm): +
Whitening degree (concentration 50 ppm): +

C=C(C)[C@@H]1CC[C@]2(C)CC[C@]3(C)[C@H](CC[C@@H]4[C@@]5(C)CC[C@H](O)C(C)(C)[C@@H]5CC[C@]43C)[C@@H]12 [lupeol, reference compound]
whitening effect (melanogenesis-inhibitory function), in words: never show any whitening effect

CC1(C)CC[C@]2(C(=O)O)CC[C@]3(C)C(=CC[C@@H]4[C@@]5(C)CC[C@H](O)C(C)(C)[C@@H]5CC[C@]43C)[C@@H]2C1 [oleanolic acid, reference compound]
whitening effect (melanogenesis-inhibitory function), in words: never show any whitening effect

C[C@H]1[C@H](C)CC[C@]2(C)CC[C@]3(C)C(=CC[C@@H]4[C@@]5(C)CC[C@H](O)C(C)(C)[C@@H]5CC[C@]43C)[C@H]12 [α-amyrin, reference compound]
whitening effect (melanogenesis-inhibitory function), in words: never show any whitening effect

CC1(C)CC[C@]2(C)CC[C@]3(C)C(=CC[C@@H]4[C@@]5(C)CC[C@H](O)C(C)(C)[C@@H]5CC[C@]43C)[C@@H]2C1 [β-amyrin, reference compound]
whitening effect (melanogenesis-inhibitory function), in words: never show any whitening effect

Ethyl Ester of 2,3-O-Di-Stearoyl-Maslinic Acid [Compound of Synthesis 4]
Whitening degree (concentration 2 ppm): ±
Whitening degree (concentration 4 ppm): ±
Whitening degree (concentration 6 ppm): +
Whitening degree (concentration 8 ppm): ++
Whitening degree (concentration 10 ppm): ++
Whitening degree (concentration 15 ppm): ++
